The text below walks through data of patent US20170304400A1, “METHODS FOR PREVENTING FIBROSIS USING CXCR4 AND/OR CXCR7 BINDING AGENTS” (ViCapsys.Inc, priority 2016, published 2017).

This assay relates to non-human primate (NHP). Description: Intraperitoneal implant of alginate microbeads in non-human primates: surgical inspection, lavage recovery and biopsy histopathology. Format: in vivo. As to the method: In the first non-human primate (NHP) study with alginate microbeads, two animals received intraperitoneal implants of ˜400,000 microbeads each of (1.6% calcium LVM) alginate containing either 1 μg/ml of recombinant human CXCL12 (“CXCL12^+”) or not (“CXCL12”). Microbeads were prepared using a vibrational encapsulation method using a 200 μm nozzle. Microbeads were on average 426-427 μm in diameter with an error of the mean of approximately 10-15%. The diameter was measured after 2 hours in culture media. Microbeads swell 30-40% after transfer into some media or after implantation. Median roundness was less than the desirable 0.90, ranging from 0.78 in the CXCL12^− microbeads (FIG. 1) to 0.80 in the CXCL12^+ (FIG. 2), but with a skew in roundness reflecting a small but significant number of non-round beads. Microbeads were delivered in a blinded manner to operators. During the implant, primate 0715 received the CXCL12^− implant; primate 1715 received the CXCL12^+ implant. Both animals were implanted using a minimally invasive technique featuring placement of beads in 30 cc of 300 mOsmolar calcium chloride solution in the intraperitoneal space and explanted surgically. Neither of the procedures was eventful. Both animals appeared healthy during the entire period of four weeks following the implantation procedure. The explant procedure for each animal involved surgical opening of the peritoneal cavity, visual inspection of all regions of the mesentery and abdomen/pelvis for bead position, lavage with 100 cc of N-saline to recover free microbeads and peritoneal fluid, and biopsy of tissues where microbeads appeared to be embedded in the tissue. Evaluation was done at 30, 90, and 180 days. Arrows point to adhesions.

As for “CXCL12: chemokine CXCL12 (also called SDF-1); recombinant human CXCL12 used in the microbeads”, the “adhesions following surgery or explantation of the capsules” value (CXCL12 applied into the intraperitoneal cavity in alginate capsules) is “no adhesions”. Moreover, the “long-term appearance of the peritoneum / surgical adhesions” value (later timepoints (day 90 and day 180), compared to CXCL12^- NHP) is “more normal and without surgical adhesions”. Also, the “foreign body responses to embedded microbeads” value (through 90 days) is “spare embedded microbeads from foreign body responses”.
